# Several values for one entry are separate records, joined by “and”; a condition that tells them apart may be missing. Equal entries are not always repeated.
# Tested on: collagenase derived from Clostridium histolyticum
# Assay: Inhibition of collagenase (fluorescence assay with fluorogenic peptide substrate)
# Format: biochemical
# Details: for Average % inhibition: average of replicates; for Inhibition Rate of collagenase (%): individual replicate
# Method: The collagenase inhibitory activity of aqueous and ethanol extracts of Cornus officinalis Sieb. et Zucc., Potentilla glabra Lodd. var. mandshurica (Maxim.) Hand.-Mazz, Amomum kravanh Pierre ex Gagnep, and Bombax ceiba Linnaeus were evaluated. The sample mixture (10 μL), 10 μg/mL of the enzyme (collagenase derived from Clostridium histolyticum) and 50 mM Tricine buffer (pH 7.5), was added to a 96-well microtiter plate. […] After a 10 minute incubation at 37° C., the substrate solution ((7-methoxycoumarin-4-yl)acetyl-L-prolyl-L-leucylglycyl-L-leucyl-[Nβ-(2,4-dinitrophenyl)-L-2,3-diaminopropionyl]-Lalanyl-L-arginine amide) was added to obtain a final concentration of 10 μM, and was allowed to react. The fluorescence values were measured after 0 minutes and 30 minutes incubation at 37° C., at an excitation of 320 nm and an emission of 405 nm, using a fluorescence plate reader (EnSpire, Perkin Elmer, Inc., Japan). EGCG was used as a positive control. The average rates of inhibition can also be appreciated with reference to the Figures.
smiles,measurement,setting,value
"O=C(O[C@@H]1Cc2c(O)cc(O)cc2O[C@@H]1c1cc(O)c(O)c(O)c1)c1cc(O)c(O)c(O)c1 [EGCG, epigallocatechin gallate]",Average % inhibition,concentration 31.25 μg/ml,19.10%
same,Average % inhibition,concentration 62.5 μg/ml,29.58%
same,Average % inhibition,concentration 125 μg/ml,39.38%
same,Average % inhibition,concentration 250 μg/ml,54.90%
same,Average % inhibition,concentration 500 μg/ml,80.36%
same,Average % inhibition,concentration 1000 μg/ml,106.38%
same,Inhibition Rate of collagenase (%),concentration 31.25 μg/ml,18.13% and 16.96% and 22.22%
same,Inhibition Rate of collagenase (%),concentration 62.5 μg/ml,31.14% and 27.49% and 30.12%
same,Inhibition Rate of collagenase (%),concentration 125 μg/ml,41.37% and 35.23% and 41.52%
same,Inhibition Rate of collagenase (%),concentration 250 μg/ml,52.78% and 57.02%
same,Inhibition Rate of collagenase (%),concentration 500 μg/ml,79.53% and 80.99% and 80.56%
same,Inhibition Rate of collagenase (%),concentration 1000 μg/ml,107.75% and 106.58% and 104.82%

# Reference: US20260124132A1, “COMPOSITION AND METHOD FOR INHIBITING COLLAGENASE ACTIVITY” (ACCESS BUSINESS GROUP INTERNATIONAL LLC, priority 2022, published 2026)
